Laboratory results: US20230295200A1 (REGENTS OF THE UNIVERSITY OF MICHIGAN, priority 2022, published 2023)

Legend:
STAT6 protein = target: T1, STAT6 protein (Homo sapiens, UniProt P42226); experiment: Fluorescence polarization (FP) binding assay, STAT6; conditions: FP competition, 5 nM fluorescein-labeled tracer, 200 nM protein, PBS pH7.4; read-out: Binding STAT6
T1 sequence (P42226 1-847): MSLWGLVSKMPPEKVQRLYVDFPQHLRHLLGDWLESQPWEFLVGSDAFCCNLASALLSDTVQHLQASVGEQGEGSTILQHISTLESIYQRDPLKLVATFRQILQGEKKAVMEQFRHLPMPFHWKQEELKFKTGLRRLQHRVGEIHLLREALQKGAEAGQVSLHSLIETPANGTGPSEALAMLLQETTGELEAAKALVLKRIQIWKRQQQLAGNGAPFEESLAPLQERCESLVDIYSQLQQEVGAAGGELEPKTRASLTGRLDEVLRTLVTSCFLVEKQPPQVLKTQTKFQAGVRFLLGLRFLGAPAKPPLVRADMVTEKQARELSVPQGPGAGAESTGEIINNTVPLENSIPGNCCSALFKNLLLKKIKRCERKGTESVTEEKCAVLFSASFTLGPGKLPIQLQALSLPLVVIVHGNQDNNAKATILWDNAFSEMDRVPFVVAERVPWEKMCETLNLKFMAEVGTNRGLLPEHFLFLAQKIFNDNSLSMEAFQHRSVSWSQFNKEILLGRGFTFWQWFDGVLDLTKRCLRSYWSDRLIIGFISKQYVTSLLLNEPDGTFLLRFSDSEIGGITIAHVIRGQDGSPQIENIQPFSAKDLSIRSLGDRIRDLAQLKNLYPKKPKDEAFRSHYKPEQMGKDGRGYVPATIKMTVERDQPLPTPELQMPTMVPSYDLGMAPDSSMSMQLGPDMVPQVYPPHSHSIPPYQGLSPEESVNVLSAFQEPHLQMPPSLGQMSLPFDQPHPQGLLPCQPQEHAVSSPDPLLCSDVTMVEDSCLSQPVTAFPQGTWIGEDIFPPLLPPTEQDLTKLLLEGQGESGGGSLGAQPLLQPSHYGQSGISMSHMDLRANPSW
Summary of the method: (§1)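 Tracer (fluorescein-labeled, 5 nM) was mixed with 200 nM STAT5 and/or STAT6 in PBS pH 7.4 plus 0.01% BGG, 0.01% Tween-20, 2 mM DTT. After 15 min shaking and 1 h at room temperature to equilibrium, polarization was measured and constants derived by nonlinear fitting.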

STAT5A = target: T2, STAT5A (Homo sapiens, UniProt P42229); experiment: Fluorescence polarization (FP) binding assay, STAT5A; conditions: FP competition, 5 nM fluorescein-labeled tracer, 200 nM protein, PBS pH7.4
T2 sequence (P42229 1-794): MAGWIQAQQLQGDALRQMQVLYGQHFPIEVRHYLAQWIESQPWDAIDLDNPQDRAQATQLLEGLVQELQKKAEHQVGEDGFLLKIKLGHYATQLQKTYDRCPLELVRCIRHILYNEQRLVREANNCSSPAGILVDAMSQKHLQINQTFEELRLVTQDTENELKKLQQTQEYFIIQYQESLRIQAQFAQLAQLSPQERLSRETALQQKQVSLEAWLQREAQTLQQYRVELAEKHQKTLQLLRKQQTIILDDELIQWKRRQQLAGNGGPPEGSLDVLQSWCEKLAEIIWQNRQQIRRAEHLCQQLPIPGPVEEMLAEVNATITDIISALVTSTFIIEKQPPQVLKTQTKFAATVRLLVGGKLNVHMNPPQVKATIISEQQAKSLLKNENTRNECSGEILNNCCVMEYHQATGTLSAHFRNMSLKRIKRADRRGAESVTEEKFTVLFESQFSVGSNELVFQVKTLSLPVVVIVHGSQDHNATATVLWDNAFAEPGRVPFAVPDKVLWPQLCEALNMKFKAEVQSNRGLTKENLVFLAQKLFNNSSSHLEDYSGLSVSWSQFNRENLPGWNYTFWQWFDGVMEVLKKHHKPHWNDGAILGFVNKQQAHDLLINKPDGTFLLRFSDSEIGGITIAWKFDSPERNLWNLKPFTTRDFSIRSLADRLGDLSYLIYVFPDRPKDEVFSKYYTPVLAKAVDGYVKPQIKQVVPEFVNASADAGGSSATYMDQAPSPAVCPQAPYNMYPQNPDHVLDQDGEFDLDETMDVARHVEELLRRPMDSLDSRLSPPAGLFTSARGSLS
Summary of the method: as §1

Ki (STAT6 protein) [µM]	Ki (STAT5A) [µM]	Structure (SMILES)
1 to 10	> 10	CC(C)(C)[C@H](NC(=O)c1cc2cc(C(F)(F)P(=O)(O)O)ccc2s1)C(=O)N1CCC[C@H]1C(=O)N1CCCC12CCCCC2 [Compound 60, ((2-(((S)-1-((S)-2-(1-azaspiro[4.5]decane-1-carbonyl)pyrrolidin-1-yl)-3,3-dimethyl-1-oxobutan-2-yl)carbamoyl)benzo[b]thiophen-5-yl)difluoromethyl)phosphonic acid]
1 to 10	> 10	CC(C)(C)[C@H](NC(=O)c1cc2cc(C(F)(F)P(=O)(O)O)ccc2s1)C(=O)N1CCC[C@H]1C(=O)N1CCC2(CCCCC2)C1 [Compound 61, ((2-(((S)-1-((S)-2-(2-azaspiro[4.5]decane-2-carbonyl)pyrrolidin-1-yl)-3,3-dimethyl-1-oxobutan-2-yl)carbamoyl)benzo[b]thiophen-5-yl)difluoromethyl)phosphonic acid]
1 to 10	> 10	CC(C)(C)[C@H](NC(=O)c1cc2cc(C(F)(F)P(=O)(O)O)ccc2s1)C(=O)N1CCC[C@H]1C(=O)N1CCC2(CCCCCC2)C1 [Compound 62, ((2-(((S)-1-((S)-2-(2-azaspiro[4.6]undecane-2-carbonyl)pyrrolidin-1-yl)-3,3-dimethyl-1-oxobutan-2-yl)carbamoyl)benzo[b]thiophen-5-yl)difluoromethyl)phosphonic acid]
1 to 10	> 10	CC(C)(C)[C@H](NC(=O)c1cc2cc(C(F)(F)P(=O)(O)O)ccc2s1)C(=O)N1CCC[C@H]1C(=O)N1CCc2ccc(Cl)cc2C1 [Compound 68, ((2-(((S)-1-((S)-2-(7-chloro-1,2,3,4-tetrahydroisoquinoline-2-carbonyl)pyrrolidin-1-yl)-3,3-dimethyl-1-oxobutan-2-yl)carbamoyl)benzo[b]thiophen-5-yl)difluoromethyl)phosphonic acid]
1 to 10	> 10	CC(C)(C)[C@H](NC(=O)c1cc2cc(C(F)(F)P(=O)(O)O)ccc2s1)C(=O)N1CCC[C@H]1C(=O)NC1(c2ccccc2)CC1 [Compound 71, ((2-(((S)-3,3-dimethyl-1-oxo-1-((S)-2-((1-phenylcyclopropyl)carbamoyl)pyrrolidin-1-yl)butan-2-yl)carbamoyl)benzo[b]thiophen-5-yl)difluoromethyl)phosphonic acid]
1 to 10	> 10	CN(Cc1ccc(Cl)cc1)C(=O)[C@@H]1CCCN1C(=O)[C@@H](NC(=O)c1cc2cc(C(F)(F)P(=O)(O)O)ccc2s1)C(C)(C)C [Compound 73, ((2-(((S)-1-((S)-2-((4-chlorobenzyl)(methyl)carbamoyl)pyrrolidin-1-yl)-3,3-dimethyl-1-oxobutan-2-yl)carbamoyl)benzo[b]thiophen-5-yl)difluoromethyl)phosphonic acid]
1 to 10	> 10	CN(Cc1ccc(Br)cc1)C(=O)[C@@H]1CCCN1C(=O)[C@@H](NC(=O)c1cc2cc(C(F)(F)P(=O)(O)O)ccc2s1)C(C)(C)C [Compound 74, ((2-(((S)-1-((S)-2-((4-bromobenzyl)(methyl)carbamoyl)pyrrolidin-1-yl)-3,3-dimethyl-1-oxobutan-2-yl)carbamoyl)benzo[b]thiophen-5-yl)difluoromethyl)phosphonic acid]
1 to 10	> 10	CC(C)(C)[C@H](NC(=O)c1cc2cc(C(F)(F)P(=O)(O)O)ccc2s1)C(=O)N1CCC[C@H]1C(=O)N(Cc1ccccc1)C1CCCCC1 [Compound 75, ((2-(((S)-1-((S)-2-(benzyl(cyclohexyl)carbamoyl)pyrrolidin-1-yl)-3,3-dimethyl-1-oxobutan-2-yl)carbamoyl)benzo[b]thiophen-5-yl)difluoromethyl)phosphonic acid]
1 to 10	> 10	CC(C)(C)[C@H](NC(=O)c1cc2cc(C(F)(F)P(=O)(O)O)ccc2s1)C(=O)N1CCC[C@H]1C(=O)N(Cc1ccccc1)C1CCOCC1 [Compound 76, ((2-(((S)-1-((S)-2-(benzyl(tetrahydro-2H-pyran-4-yl)carbamoyl)pyrrolidin-1-yl)-3,3-dimethyl-1-oxobutan-2-yl)carbamoyl)benzo[b]thiophen-5-yl)difluoromethyl)phosphonic acid]
> 10	> 10	CC(C)(C)[C@H](NC(=O)c1cc2cc(C(F)(F)P(=O)(O)O)ccc2s1)C(=O)N1CCC[C@H]1C(=O)N1CC[C@H]2CCN[C@H]2C1 [Compound 78, ((2-(((S)-3,3-dimethyl-1-((S)-2-((3aR,7aR)-octahydro-1H-pyrrolo[2,3-c]pyridine-6-carbonyl)pyrrolidin-1-yl)-1-oxobutan-2-yl)carbamoyl)benzo[b]thiophen-5-yl)difluoromethyl)phosphonic acid]
> 10	> 10	CC(C)(C)[C@H](NC(=O)c1cc2cc(C(F)(F)P(=O)(O)O)ccc2s1)C(=O)N1CCC[C@H]1C(=O)N1CC[C@@H]2CNC[C@@H]21 [Compound 79, ((2-(((S)-3,3-dimethyl-1-((S)-2-((3aR,6aR)-octahydropyrrolo[3,4-b]pyrrole-1-carbonyl)pyrrolidin-1-yl)-1-oxobutan-2-yl)carbamoyl)benzo[b]thiophen-5-yl)difluoromethyl)phosphonic acid]
> 10	> 10	CC(C)(C)[C@H](NC(=O)c1cc2cc(C(F)(F)P(=O)(O)O)ccc2s1)C(=O)N1CCC[C@H]1C(=O)N1C[C@H]2CCN[C@H]2C1 [Compound 80, ((2-(((S)-3,3-dimethyl-1-((S)-2-((3aR,6aR)-octahydropyrrolo[3,4-b]pyrrole-5-carbonyl)pyrrolidin-1-yl)-1-oxobutan-2-yl)carbamoyl)benzo[b]thiophen-5-yl)difluoromethyl)phosphonic acid]
> 10	> 10	CC(=O)N1CC[C@@H]2CCN(C(=O)[C@@H]3CCCN3C(=O)[C@@H](NC(=O)c3cc4cc(C(F)(F)P(=O)(O)O)ccc4s3)C(C)(C)C)C[C@@H]21 [Compound 81, ((2-(((S)-1-((S)-2-((3aS,7aR)-1-acetyloctahydro-1H-pyrrolo[2,3-c]pyridine-6-carbonyl)pyrrolidin-1-yl)-3,3-dimethyl-1-oxobutan-2-yl)carbamoyl)benzo[b]thiophen-5-yl)difluoromethyl)phosphonic acid]
> 10	> 10	CCCCC(=O)N1CC[C@@H]2CCN(C(=O)[C@@H]3CCCN3C(=O)[C@@H](NC(=O)c3cc4cc(C(F)(F)P(=O)(O)O)ccc4s3)C(C)(C)C)C[C@@H]21 [Compound 82, ((2-(((S)-3,3-dimethyl-1-oxo-1-((S)-2-((3aS,7aR)-1-pentanoyloctahydro-1H-pyrrolo[2,3-c]pyridine-6-carbonyl)pyrrolidin-1-yl)butan-2-yl)carbamoyl)benzo[b]thiophen-5-yl)difluoromethyl)phosphonic acid]
> 10	> 10	CC(C)(C)[C@H](NC(=O)c1cc2cc(C(F)(F)P(=O)(O)O)ccc2s1)C(=O)N1CCC[C@H]1C(=O)N1CC[C@H]2CCN(C(=O)c3ccc(F)cc3)[C@H]2C1 [Compound 83, (difluoro(2-(((S)-1-((S)-2-((3aS,7aR)-1-(4-fluorobenzoyl)octahydro-1H-pyrrolo[2,3-c]pyridine-6-carbonyl)pyrrolidin-1-yl)-3,3-dimethyl-1-oxobutan-2-yl)carbamoyl)benzo[b]thiophen-5-yl)methyl)phosphonic acid]
